[ ]: non-standard residue; d: D form. The star is where a group is joined. X1 = CC(C)CCC[C@@H](C)[C@H]1CC[C@H]2[C@@H]3CC=C4C[C@@H](OC(=O)C*)CC[C@]4(C)[C@H]3CC[C@]12C; PEG4 = NCCOCCOCCOCCOCCC(=O)O
Legend:
[1] = in vivo
proteinase K [2] = molecular target: T1, proteinase K (Parengyodontium album, UniProt P06873); test: in vitro; settings: isolated enzyme proteinase k, pH 7.5
proteinase K [3] = molecular target: T1, proteinase K; settings: isolated enzyme proteinase k, pH 7.5

T1 sequence (P06873 106-384): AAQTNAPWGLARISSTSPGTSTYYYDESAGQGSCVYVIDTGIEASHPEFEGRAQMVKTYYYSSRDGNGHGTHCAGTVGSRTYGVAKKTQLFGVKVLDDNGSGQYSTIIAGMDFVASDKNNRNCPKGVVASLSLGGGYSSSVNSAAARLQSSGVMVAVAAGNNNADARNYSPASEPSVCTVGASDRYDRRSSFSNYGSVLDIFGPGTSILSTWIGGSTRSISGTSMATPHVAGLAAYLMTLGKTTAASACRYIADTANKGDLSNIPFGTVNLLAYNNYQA

Substance | biodistribution (lung, blood, CNS) [1] | half-life (proteinase K [2]) [min] | half-life of the intact peptide fraction (proteinase K [3]) [min]
Ac-VALDPIDISIVLNKIKSDLEESKEWIRRSNKILDSIGSGSG[PEG4]C(X1)-NH2 [VIKI-dPEG4-Chol] | reached high levels in the lung | 10 | –
Ac-VALDPIDISIVLNKIKSDLEESKEWIRRSNKILDSI-GSGSG-dPEG4-C-(PEG4-Chol)2-NH2 [VIKI-dPEG4-bisChol] | – | – | 3
Ac-VALDPIDISIVLNKIKSDLEESKEWIRRSNKILDSI-GSGSG-dPEG4-C-(PEG4-Toco)2-NH2 [VIKI-dPEG4-bisToco] | – | – | 5
